These results are taken from ChEMBL document CHEMBL1142305, “The effect of flavonoid derivatives on doxorubicin transport and metabolism” (Bioorg Med Chem, 2008).

For data set [1], the system named is MDA-MB-435. The data set is described as follows: Drug uptake in human MDA-MB-435 cells in presence of 100 uM MK-571. The data set is classed as ADME, cell-based.
A short description of data set [2]: Effect on drug efflux in human NCI-ADR-RES cells at 100 nM upto 120 mins. The class given is ADME, cell-based. To be noted: 2 h, 0.1 µM.
The test system of data set [3] is MDA-MB-435. The data set is described as follows: Increase in drug uptake in human MDA-MB-435 cells in presence of 100 uM verapamil. The class given is ADME, cell-based.
Data set [4] is described as follows: Increase in drug uptake in human NCI-ADR-RES cells in presence of 100 uM verapamil. The data set is classed as ADME, cell-based.
A short description of data set [5]: Inhibition of drug efflux in human NCI-ADR-RES cells at 100 nM after 120 mins in presence of 100 uM verapamil. The class given is ADME, cell-based. To be noted: 2 h, 0.1 µM.
Data set [6] concerns MDA-MB-435. The data set is described as follows: Effect on drug uptake in human MDA-MB-435 cells in presence of 10 uM verapamil. The class given is ADME, cell-based.
Data set [7] concerns MDA-MB-435. The data set is described as follows: Effect on drug efflux in human MDA-MB-435 cells at 100 nM upto 120 mins. As to conditions: mda-mb-435, 2 h, 0.1 µM; call rule not given here. The data set is classed as ADME, cell-based.
Data set [8] is described as follows: Effect on drug uptake in human NCI-ADR-RES cells in presence of 10 uM verapamil. The class given is ADME, cell-based.
Data set [9] concerns MDA-MB-435. The data set can be described thus: Cytotoxicity against human MDA-MB-435 cells at 10 uM after 96 hrs by MTT assay. The data set is classed as cell-based. To be noted: mda-mb-435, 96 h. A general note: Tetrazolium assays rely on reduction of a dye to a coloured formazan, in cell work by metabolically active cells.
Data set [10] deals with Liver. The data set is described as follows: Effect on doxorubicin metabolism in human liver cytosolic fractions assessed as inhibition of formation of doxorubicinol. The class given is ADME, subcellular, Cytosol.
A short description of data set [11]: Effect on [14C]DOX efflux in human NCI-ADR-RES cells. The data set is classed as ADME, cell-based.
Data set [12] is described as follows: Decrease in [14C]DOX accumulation in human NCI-ADR-RES cells at 30 uM after 120 mins. As to conditions: 2 h. The class given is ADME, cell-based. The arrangement: scale not given: the % may be the effect or the level left.
The next data set concerns Liver microsomes. The data set can be described thus: Metabolic stability in human liver microsomal fraction assessed as formation of doxorubicin aglycone after 60 mins. The data set is classed as ADME, Microsome. As to conditions: 1 h. Background: Liver microsomes are vesicles of endoplasmic reticulum, rich in cytochrome P450 enzymes.
Data set [13] concerns Liver. The data set can be described thus: Metabolic stability in human liver cytosolic fraction assessed as formation of doxorubicinol after 60 mins. The data set is classed as ADME, subcellular. As to conditions: cytosol, 1 h.
The subject of data set [14] is Liver. The data set can be described thus: Effect on doxorubicin metabolism in human liver cytosolic fractions assessed as inhibition of formation of doxorubicinol at 30 uM. The data set is classed as ADME, subcellular. As to conditions: cytosol.

On to `C[C@@H]1O[C@@H](O[C@H]2C[C@](O)(C(=O)CO)Cc3c(O)c4c(c(O)c32)C(=O)c2c(O[14CH3])cccc2C4=O)C[C@H](N)[C@@H]1O`, for which the Activity result is “Not Active” in the data set with MDA-MB-435 [1]; 66% in data set [2]; “Active” in [5]; “Not Active” with MDA-MB-435 [6]; 23% in the data set on MDA-MB-435 [7]; “Not Active” in data set [8]. For the same compound, the results for the Fold change (in the data set with MDA-MB-435 [3]; in data set [4]) were 3.7 and 7.6, respectively.
For `COc1cc(OC)c2c(c1)O/C(=C\c1cc(OC)c(OC)cc1OC)C2=O`, the Activity result in the data set on MDA-MB-435 [9] was “Toxic”.
Turning to `O=c1c(O)c(-c2ccc(O)c(O)c2)oc2cc(O)cc(O)c12` [QUERCETIN], the half-maximal inhibitory concentration (IC50) (usually the midpoint of a concentration-inhibition curve) in the data set with Liver [10] was found to be 16.2 µM. For the same compound, the Activity entry is “Not Active” in data set [11], 51.3% in data set [12] and “Toxic” with MDA-MB-435 [9].
As to `COc1cccc2c1C(=O)c1c(O)c3c(c(O)c1C2=O)C[C@@](O)(C(=O)CO)C[C@@H]3O[C@H]1C[C@H](N)[C@H](O)[C@H](C)O1` [DOXORUBICIN], the Activity is reported as 4.63% in the data set with Liver microsomes and 15.1% in the data set with Liver [13].
For the compound `O=C(/C=C/c1ccc(I)cc1)c1c(O)cc(O)cc1O`, the results for the Activity entry with Liver [14] and in the data set with MDA-MB-435 [9] were “Active” and “Toxic”, respectively.
As for `COc1cc(O)c2c(c1)O/C(=C\c1ccc(Cl)cc1)C2=O`, the Activity entry in the data set on MDA-MB-435 [9] was “Toxic”.
On the same count and under the same terms, for `CCc1ccc(/C=C2\Oc3cc(OC)cc(O)c3C2=O)cc1` the value was “Toxic”; for `O=c1c(O)c(-c2ccc(O)c(O)c2)oc2cc(O)ccc12` [FISETIN], “Toxic”; for `O=C1C[C@@H](c2ccc(O)c(O)c2)Oc2cc(O)cc(O)c21` [ERIODICTYOL], “Toxic”.
For `COc1cc(O)c2c(c1)O/C(=C\c1ccccc1)C2=O`, the Activity entry is on record as “Active” with Liver [14] and “Toxic” in the data set on MDA-MB-435 [9].
